The text below walks through data of patent publication US10526337B2, “Heteroaryl derivative or pharmaceutically acceptable salt thereof, preparation method therefor, and pharmaceutical composition for preventing or treating diseases associated with PI3 kinases, containing same as active ingredient” (KOREA RESEARCH INSTITUTE OF CHEMICAL TECHNOLOGY, priority 2015, dated 2020).

Conditions in all cases: ATP=10 uM, sample concentration=100 nM
The target of test [1] is T1, PI3 Kinase (p110δ/p85α) (h) (Homo sapiens, UniProt O00329).
T1 construct: endogenous in cells; host or cells: Raji
T1 sequence (O00329 whole entry): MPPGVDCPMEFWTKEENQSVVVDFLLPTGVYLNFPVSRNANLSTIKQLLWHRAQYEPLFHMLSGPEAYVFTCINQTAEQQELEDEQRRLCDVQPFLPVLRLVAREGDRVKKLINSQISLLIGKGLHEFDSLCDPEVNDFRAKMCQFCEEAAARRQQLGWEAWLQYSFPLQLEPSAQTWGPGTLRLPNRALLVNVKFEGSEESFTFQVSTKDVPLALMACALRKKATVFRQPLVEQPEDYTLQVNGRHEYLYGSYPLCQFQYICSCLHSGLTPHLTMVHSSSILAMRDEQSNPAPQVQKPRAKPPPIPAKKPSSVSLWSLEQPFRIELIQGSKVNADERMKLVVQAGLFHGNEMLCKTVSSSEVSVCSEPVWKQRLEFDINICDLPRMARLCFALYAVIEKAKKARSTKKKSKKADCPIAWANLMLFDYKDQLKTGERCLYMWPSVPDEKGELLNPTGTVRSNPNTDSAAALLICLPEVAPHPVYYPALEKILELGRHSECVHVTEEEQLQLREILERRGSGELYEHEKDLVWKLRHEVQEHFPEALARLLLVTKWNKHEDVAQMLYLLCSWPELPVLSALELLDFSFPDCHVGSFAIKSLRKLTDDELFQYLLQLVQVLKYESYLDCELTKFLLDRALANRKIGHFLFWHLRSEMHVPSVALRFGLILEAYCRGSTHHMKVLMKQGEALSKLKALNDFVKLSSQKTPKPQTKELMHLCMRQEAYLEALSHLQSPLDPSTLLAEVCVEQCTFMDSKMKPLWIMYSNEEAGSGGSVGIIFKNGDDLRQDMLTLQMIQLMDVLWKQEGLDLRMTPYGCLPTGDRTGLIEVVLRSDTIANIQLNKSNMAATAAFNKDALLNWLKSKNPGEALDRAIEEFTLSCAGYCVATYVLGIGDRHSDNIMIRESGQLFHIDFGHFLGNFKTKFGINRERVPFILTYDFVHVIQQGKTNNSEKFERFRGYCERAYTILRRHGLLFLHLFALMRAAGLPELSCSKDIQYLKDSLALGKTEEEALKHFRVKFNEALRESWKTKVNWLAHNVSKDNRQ
T1 sequence (P27986 whole entry partner): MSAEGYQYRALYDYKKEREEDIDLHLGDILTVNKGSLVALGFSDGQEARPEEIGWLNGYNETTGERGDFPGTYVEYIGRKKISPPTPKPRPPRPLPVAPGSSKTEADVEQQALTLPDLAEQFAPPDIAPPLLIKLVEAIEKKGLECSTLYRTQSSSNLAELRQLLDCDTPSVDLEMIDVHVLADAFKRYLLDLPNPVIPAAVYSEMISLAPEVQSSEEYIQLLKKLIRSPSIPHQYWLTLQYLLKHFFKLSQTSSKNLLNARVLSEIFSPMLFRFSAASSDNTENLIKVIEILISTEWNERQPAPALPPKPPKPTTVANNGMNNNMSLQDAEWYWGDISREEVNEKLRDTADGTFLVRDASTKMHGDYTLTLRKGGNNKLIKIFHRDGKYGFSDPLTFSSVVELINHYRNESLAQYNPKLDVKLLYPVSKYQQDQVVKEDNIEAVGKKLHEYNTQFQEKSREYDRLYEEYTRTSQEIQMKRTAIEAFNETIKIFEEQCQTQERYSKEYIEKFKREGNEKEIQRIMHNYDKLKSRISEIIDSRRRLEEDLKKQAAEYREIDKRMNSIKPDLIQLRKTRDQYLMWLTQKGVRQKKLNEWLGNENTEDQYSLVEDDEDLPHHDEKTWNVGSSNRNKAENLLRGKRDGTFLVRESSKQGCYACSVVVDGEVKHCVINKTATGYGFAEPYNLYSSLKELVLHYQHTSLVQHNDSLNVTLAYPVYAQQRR
In words: Inhibition of phosphatidylinositol 3-kinase delta (PI3K δ), pAkt Western blotting in IgM-stimulated Raji cells. The format is cell-based. Put shortly:
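Raji cells were treated with compound for 1.5 h, then stimulated with 0.25 μg/mL IgM for 30 min to activate PI3Kδ. Lysates were Western blotted for pAkt (Ser473 or Thr308) with ECL detection. Conditions stated: ATP=10 uM, sample concentration=100 nM.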

Test [2] has as its target T2, PI3 Kinase (p110α/p85α) (h) (Homo sapiens, UniProt P42336).
T2 construct: endogenous in cells; host or cells: MDA-MB-453
In words: Inhibition of phosphatidylinositol 3-kinase alpha (PI3K α), pAkt Western blotting in EGF-stimulated MDA-MB-453 cells. The format is cell-based. Here is the method:
The inhibition of phosphatidylinositol 3 kinase alpha (PI3K α) by those compounds prepared in Examples 1˜98 was investigated by the following experiment. The inhibition activity of each compound was measured in the following conditions: ATP=10 uM, and sample concentration=100 nM.
Human breast cancer cells (MDA-MB-453) cultured in DMEM (Dulbecco's Modified Eagle Medium, Hyclon, SH30243.01) supplemented with 10% fetal bovine serum (Hyclon, USA) were distributed in a 12-well plate at the density of 1,000,000 cells/well. The cells were stabilized in a 37° C. CO2 for 24 hours and then treated with each compound for 1 and half hours. The cells were treated with 10 ng/mL of EGF (Epidermal Growth Factor, 10 μg/mL; R&D, 2150-C5) to increase the intracellular activity of PI3K alpha. 5 minutes later, the medium was discarded and the cells were washed with cold PBS (phosphate buffered saline, Gibco, 14190-250). PBS was then eliminated completely by using a pipette. Western blotting was performed as described in step 2 to evaluate the intracellular PI3K alpha activity.
(§1) The stimulated cells were transferred in a 1.5 mL tube, followed by centrifugation at 3000 rpm for 1 minute. 100 μL of RIPA buffer (radioimmunoprecipitation assay buffer, 50 mM Tris-HCl, 5 mM EDTA, 150 mM NaCl, 1% NP-40, 1 mM PMSF, pH 8.0; ELPIS, Korea) was added thereto, which was stored in a 4° C. refrigerator for 12 hours. Centrifugation was performed at 4° C. at 14,000 rpm for 20 minutes. The supernatant was transferred into a new 1.5 mL tube. Protein was quantified by BCA (bicinchoninic acid) method and samples were prepared. The composition of the sample was as follows: sample buffer (ELPIS, EBA-1052) 5×, protein 10 μg, and 1× sample buffer to make the total volume 20 μL. The sample was heated at 100° C. for 5 minutes. The evaporated water vapor was condensed in a refrigerator. The liquid stained on the wall was fallen down by centrifugation for a few seconds. The sample proceeded to 10% SDS (Sodium Dodecyl Sulfate) acrylamide gel for separation. The separated protein was transferred onto PVDF (poly-vinyl difluoride) membrane, followed by reaction with pAkt (phospho protein kinase B) antibody (Ser473 or Thr308; Cell signaling, 9271s or 13038s) for 12 hours at 4° C. The membrane was washed with TBST (Tris-Buffered Saline with Tween 20, 10 mM Tris-HCl, pH 7.5, 150 mM NaCl, 0.1% Tween-20) three times for 5 minutes each, to which the secondary antibody (rabbit antibody, Santacruz, sc-2004) was added, followed by reaction at room temperature for 2 hours. The membrane was washed with TBST three times for 10 minutes each, to which ECL (enhanced chemiluminescence, Thermo, NCI34095KR) was sprayed. Bands were investigated by using LAS-3000.

Test [3] deals with T3, PI3 Kinase (p110β/p86α) (h) (Homo sapiens, UniProt P42338).
T3 construct: endogenous in cells; host or cells: PC3
T3 sequence (P42338 whole entry): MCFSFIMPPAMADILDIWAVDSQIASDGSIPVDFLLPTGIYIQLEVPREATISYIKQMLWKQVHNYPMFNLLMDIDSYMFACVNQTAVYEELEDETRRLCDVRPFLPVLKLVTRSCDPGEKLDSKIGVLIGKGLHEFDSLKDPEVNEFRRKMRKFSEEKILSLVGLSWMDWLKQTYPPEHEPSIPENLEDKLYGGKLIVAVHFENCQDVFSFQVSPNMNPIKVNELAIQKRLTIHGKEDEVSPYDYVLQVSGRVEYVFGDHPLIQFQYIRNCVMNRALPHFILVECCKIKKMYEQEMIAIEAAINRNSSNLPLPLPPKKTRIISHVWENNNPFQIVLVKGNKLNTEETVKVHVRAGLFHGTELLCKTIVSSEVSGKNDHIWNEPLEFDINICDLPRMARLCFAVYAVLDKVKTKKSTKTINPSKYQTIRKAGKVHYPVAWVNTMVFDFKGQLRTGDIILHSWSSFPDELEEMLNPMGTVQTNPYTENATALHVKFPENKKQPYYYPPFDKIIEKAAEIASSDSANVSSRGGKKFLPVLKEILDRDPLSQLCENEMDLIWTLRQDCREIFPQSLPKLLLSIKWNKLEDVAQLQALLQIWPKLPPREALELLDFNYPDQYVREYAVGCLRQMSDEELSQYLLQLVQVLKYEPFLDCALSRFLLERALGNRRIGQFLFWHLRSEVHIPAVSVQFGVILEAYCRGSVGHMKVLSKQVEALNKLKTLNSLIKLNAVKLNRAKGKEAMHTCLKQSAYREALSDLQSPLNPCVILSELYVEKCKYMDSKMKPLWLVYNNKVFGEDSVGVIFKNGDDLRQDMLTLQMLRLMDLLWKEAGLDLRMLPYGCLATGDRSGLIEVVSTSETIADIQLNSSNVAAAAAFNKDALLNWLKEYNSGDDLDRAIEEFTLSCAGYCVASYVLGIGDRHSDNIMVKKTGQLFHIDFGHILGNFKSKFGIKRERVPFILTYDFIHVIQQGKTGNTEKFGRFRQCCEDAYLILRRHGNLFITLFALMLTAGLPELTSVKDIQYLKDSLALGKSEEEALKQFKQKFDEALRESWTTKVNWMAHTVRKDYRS
T3 sequence (P27986 whole entry partner): as the sequence (P27986 whole entry partner) above
In words: Inhibition of phosphatidylinositol 3-kinase beta (PI3K β), pAkt Western blotting in LPA-stimulated PC3 cells. Type of test: cell-based. As for the experimental part: as §1
The inhibition of phosphatidylinositol 3 kinase beta (PI3K β) by those compounds prepared in Examples 1˜98 was investigated by the following experiment. The inhibition activity of each compound was measured in the following conditions: ATP=10 uM, and sample concentration=100 nM.
Human prostate cancer cells (PC3 cells) cultured in DMEM (Dulbecco's Modified Eagle Medium, Hyclon, SH30243.01) supplemented with 10% fetal bovine serum (Hyclon, USA) were distributed in a 12-well plate at the density of 1,000,000 cells/well. The cells were stabilized in a 37° C. CO2 for 24 hours and then treated with each compound for 1 and half hours. The cells were treated with 10 ng/mL of LPA (lysophosphatidic acid, 10 μg/mL; R&D, 2150-05) to increase the intracellular activity of PI3K beta. 5 minutes later, the medium was discarded and the cells were washed with cold PBS (phosphate buffered saline, Gibco, 14190-250). PBS was then eliminated completely by using a pipette. Western blotting was performed according to the same manner as described in step 2 of Experimental Example 1 to evaluate the intracellular PI3K beta activity.
For orientation: A western blot detects proteins with antibodies after separation by electrophoresis.

A further test has as its target T4, PI3 Kinase (p120γ) (h) (Homo sapiens, UniProt P48736).
T4 construct: endogenous in cells; host or cells: RAW264.7
In words: Inhibition of phosphatidylinositol 3-kinase gamma (PI3K γ), pAkt Western blotting in C5a-stimulated RAW264.7 macrophages. The format is cell-based, mouse. A digest of the protocol: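 Enzyme: PI3Kγ activity measured at ATP=10 uM with compound at 100 nM. Cellular: RAW264.7 macrophages treated with compound 1.5 h, then stimulated with 10 ng/mL C5a for 5 min; lysates (10 μg protein) probed by Western blot for pAkt (Ser473 or Thr308), ECL detection.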

A value given as a limit tells only on which side of the number the result lay.

T2 sequence (P42336 whole entry): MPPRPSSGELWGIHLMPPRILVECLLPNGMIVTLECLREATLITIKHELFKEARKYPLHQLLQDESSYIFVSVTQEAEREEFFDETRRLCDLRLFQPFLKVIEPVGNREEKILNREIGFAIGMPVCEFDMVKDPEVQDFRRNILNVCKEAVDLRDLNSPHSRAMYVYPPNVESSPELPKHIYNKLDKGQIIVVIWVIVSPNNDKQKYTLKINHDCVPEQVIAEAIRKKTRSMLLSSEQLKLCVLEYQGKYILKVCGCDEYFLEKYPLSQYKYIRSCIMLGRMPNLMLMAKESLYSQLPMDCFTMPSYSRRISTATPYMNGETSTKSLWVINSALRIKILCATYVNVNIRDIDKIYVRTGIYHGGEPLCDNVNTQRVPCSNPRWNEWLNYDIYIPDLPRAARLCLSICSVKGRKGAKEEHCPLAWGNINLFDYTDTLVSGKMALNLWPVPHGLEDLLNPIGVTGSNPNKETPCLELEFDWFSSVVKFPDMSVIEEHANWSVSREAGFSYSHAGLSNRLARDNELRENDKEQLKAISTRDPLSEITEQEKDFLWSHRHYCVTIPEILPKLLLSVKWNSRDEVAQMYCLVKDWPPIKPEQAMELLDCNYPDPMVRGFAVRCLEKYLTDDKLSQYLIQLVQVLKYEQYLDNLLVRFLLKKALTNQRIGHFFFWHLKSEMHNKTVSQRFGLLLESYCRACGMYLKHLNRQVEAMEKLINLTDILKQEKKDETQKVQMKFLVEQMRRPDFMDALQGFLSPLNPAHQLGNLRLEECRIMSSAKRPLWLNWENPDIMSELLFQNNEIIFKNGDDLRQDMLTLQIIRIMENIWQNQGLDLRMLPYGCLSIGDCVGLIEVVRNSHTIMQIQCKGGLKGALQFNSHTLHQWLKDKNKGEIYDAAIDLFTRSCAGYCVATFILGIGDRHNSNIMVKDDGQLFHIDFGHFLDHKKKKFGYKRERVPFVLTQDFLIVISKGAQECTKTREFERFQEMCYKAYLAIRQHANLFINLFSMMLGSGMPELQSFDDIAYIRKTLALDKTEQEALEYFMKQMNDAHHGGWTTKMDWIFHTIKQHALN
T2 sequence (P27986 2-724 partner limits assumed): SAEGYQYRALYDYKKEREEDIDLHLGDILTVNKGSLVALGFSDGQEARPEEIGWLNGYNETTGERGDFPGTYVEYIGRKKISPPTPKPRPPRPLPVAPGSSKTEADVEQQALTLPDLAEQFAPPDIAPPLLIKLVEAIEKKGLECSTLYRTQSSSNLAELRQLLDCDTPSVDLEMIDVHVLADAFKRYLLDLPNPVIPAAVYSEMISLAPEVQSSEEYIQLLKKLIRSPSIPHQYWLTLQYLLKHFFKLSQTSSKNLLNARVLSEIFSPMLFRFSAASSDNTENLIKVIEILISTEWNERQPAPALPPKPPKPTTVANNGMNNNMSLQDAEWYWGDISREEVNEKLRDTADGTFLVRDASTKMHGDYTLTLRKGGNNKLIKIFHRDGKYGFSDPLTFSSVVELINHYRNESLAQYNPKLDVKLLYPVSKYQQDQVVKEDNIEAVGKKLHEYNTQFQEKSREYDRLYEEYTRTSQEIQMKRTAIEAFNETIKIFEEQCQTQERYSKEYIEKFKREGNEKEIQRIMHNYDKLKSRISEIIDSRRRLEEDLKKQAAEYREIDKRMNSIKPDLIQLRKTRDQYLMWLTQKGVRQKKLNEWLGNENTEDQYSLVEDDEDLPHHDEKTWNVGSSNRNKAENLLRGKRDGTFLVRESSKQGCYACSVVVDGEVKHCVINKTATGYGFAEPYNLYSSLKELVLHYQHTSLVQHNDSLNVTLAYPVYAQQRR

Take `C[C@H](Nc1ncnc2[nH]ccc(=O)c12)c1nc2cccc(Cl)c2c(=O)n1-c1ccccc1` [Example 1, (S)-4-((1-(5-chloro-4-oxo-3-phenyl-3,4-dihydroquinazoline-2-yl)ethyl)amino)pyrido[2,3-d]pyrimidine-5(8H)-one]: the IC50 in test [1] is under 10 nM; in test [2], over 500 nM; in test [3], 10 to 500 nM; at PI3 Kinase (p120γ) (h), 10 to 500 nM.
On to `C[C@H](Nc1ncnc2[nH]ccc(=O)c12)c1nc2cccc(Cl)c2c(=O)n1-c1cccnc1` [Example 2, (S)-4-((1-(5-chloro-4-oxo-3-(pyridine-3-yl)-3,4-dihydroquinazoline-2-yl)ethyl)amino)pyrido[2,3-d]pyrimidine-5(8H)-one], for which the IC50 in test [1] was under 10 nM; in test [2], over 500 nM; in test [3], over 500 nM; on PI3 Kinase (p120γ) (h), 10 to 500 nM.
Regarding `C[C@H](Nc1ncnc2[nH]ccc(=O)c12)c1nc2cccc(Cl)c2c(=O)n1-c1ccccn1` [Example 3, (S)-4-((1-(5-chloro-4-oxo-3-(pyridine-2-yl)-3,4-dihydroquinazoline-2-yl)ethyl)amino)pyrido[2,3-d]pyrimidine-5(8H)-one], the IC50 in test [1] is under 10 nM; in test [2], over 500 nM; in test [3] it was over 500 nM; against PI3 Kinase (p120γ) (h), 10 to 500 nM.
As for `C[C@H](Nc1ncnc2[nH]ccc(=O)c12)c1nc2cccc(Cl)c2c(=O)n1-c1cc(F)cc(F)c1` [Example 4, (S)-4-((1-(5-chloro-3-(3,5-difluorophenyl)-4-oxo-3,4-dihydroquinazoline-2-yl)ethyl)amino)pyrido[2,3-d]pyrimidine-5(8H)-one], the IC50 was under 10 nM in test [1], over 500 nM in test [2], over 500 nM in test [3] and 10 to 500 nM against PI3 Kinase (p120γ) (h).
For the compound `C[C@H](Nc1ncnc2[nH]ccc(=O)c12)c1cc2cccc(Cl)c2c(=O)n1-c1ccccc1` [Example 5, (S)-4-((1-(8-chloro-1-oxo-2-phenyl-1,2-dihydroisoquinoline-3-yl)ethyl)amino)pyrido[2,3-d]pyrimidine-5(8H)-one], the concentration for half-maximal inhibition (IC50) in test [1] was under 10 nM; in test [2], over 500 nM; in test [3] it was 10 to 500 nM; on PI3 Kinase (p120γ) (h) it was 10 to 500 nM.
On to `C[C@H](Nc1ncnc2[nH]ccc(=O)c12)c1cc2ccccc2nc1-c1ccccc1` [Example 6, (S)-4-((1-(2-phenylquinoline-3-yl)ethyl)amino)pyrido[2,3-d]pyrimidine-5(8H)-one], for which the 50% inhibitory concentration (IC50) in test [1] is under 10 nM; in test [2], over 500 nM; in test [3] it was over 500 nM; against PI3 Kinase (p120γ) (h), 10 to 500 nM.
Regarding `CC(Nc1ncnc2[nH]ccc(=O)c12)c1nc2ccc(F)cc2cc1-c1ccccn1` (stereo not drawn) [Example 7, 4-((1-(6-fluoro-3-(pyridine-2-yl)quinoline-2-yl)ethyl)amino)pyrido[2,3-d]pyrimidine-5(8H)-one], the IC50 was under 10 nM in test [1], over 500 nM in test [2], over 500 nM in test [3] and over 500 nM at PI3 Kinase (p120γ) (h).
In the case of `C[C@H](Nc1ncnc2[nH]ccc(=O)c12)c1nc2ccc(F)cc2cc1-c1ccccn1` [Example 7-1, (S)-4-((1-(6-fluoro-3-(pyridine-2-yl)quinoline-2-yl)ethyl)amino)pyrido[2,3-d]pyrimidine-5(8H)-one], the IC50 was 10 to 500 nM in test [1], over 500 nM in test [2], over 500 nM in test [3] and over 500 nM against PI3 Kinase (p120γ) (h).
For the compound `C[C@H](Nc1ncnc2[nH]ccc(=O)c12)c1cc2ccc(F)cc2nc1-c1cccc(F)c1` [Example 8, (S)-4-((1-(7-fluoro-2-(3-fluorophenyl)quinoline-3-yl)ethyl)amino)pyrido[2,3-d]pyrimidine-5(8H)-one], the IC50 is under 10 nM in test [1], over 500 nM in test [2], over 500 nM in test [3] and 10 to 500 nM on PI3 Kinase (p120γ) (h).
Turning to `C[C@H](Nc1ncnc2[nH]ccc(=O)c12)c1cc2ccc(F)cc2nc1-c1ccccn1` [Example 9, (S)-4-(1-(7-fluoro-2-(pyridine-2-yl)quinoline-3-yl)ethylamino)pyrido[2,3-d]pyrimidine-5(8H)-one], the half-inhibitory concentration (IC50) in test [1] is under 10 nM; in test [2] it was over 500 nM; in test [3], over 500 nM; against PI3 Kinase (p120γ) (h), 10 to 500 nM.
Turning to `C[C@H](Nc1ncnc2[nH]ccc(=O)c12)c1c(Cl)c2cccc(Cl)c2c(=O)n1-c1ccccc1` [Example 10, (S)-4-((1-(4,8-dichloro-1-oxo-2-phenyl-1,2-dihydroisoquinoline-3-yl)ethyl)amino)pyrido[2,3-d]pyrimidine-5(8H)-one], the IC50 is under 10 nM in test [1], over 500 nM in test [2], over 500 nM in test [3] and 10 to 500 nM on PI3 Kinase (p120γ) (h).
Consider `C[C@H](Nc1ncnc2[nH]ccc(=O)c12)c1c(F)c2cccc(Cl)c2c(=O)n1-c1ccccc1` [Example 11, (S)-4-((1-(8-chloro-4-fluoro-1-oxo-2-phenyl-1,2-dihydroisoquinoline-3-yl)ethyl)amino)pyrido[2,3-d]pyrimidine-5(8H)-one], for which the IC50 in test [1] was under 10 nM; in test [2], over 500 nM; in test [3], over 500 nM; against PI3 Kinase (p120γ) (h) it was 10 to 500 nM.
Take `CC[C@H](Nc1ncnc2[nH]ccc(=O)c12)c1nc2cccc(F)c2c(=O)n1-c1ccccc1` [Example 12, (S)-4-((1-(5-fluoro-4-oxo-3-phenyl-3,4-dihydroquinazoline-2-yl)propyl)amino)pyrido[2,3-d]pyrimidine-5(8H)-one]: the IC50 in test [1] was under 10 nM; in test [2], over 500 nM; in test [3] it was over 500 nM; at PI3 Kinase (p120γ) (h), 10 to 500 nM.
Regarding `O=c1cc[nH]c2ncnc(N3CCC[C@H]3c3nc4cccc(Cl)c4c(=O)n3-c3ccccc3)c12` [Example 13, (S)-4-(2-(5-chloro-4-oxo-3-phenyl-3,4-dihydroquinazoline-2-yl)pyrrolidine-1-yl)pyrido[2,3-d]pyrimidine-5(8H)-one], the IC50 is under 10 nM in test [1], over 500 nM in test [2], over 500 nM in test [3] and 10 to 500 nM against PI3 Kinase (p120γ) (h).
Regarding `O=c1cc[nH]c2ncnc(N3CCC[C@H]3c3cc4cccc(Cl)c4c(=O)n3-c3ccccc3)c12` [Example 14, (S)-4-(2-(8-chloro-1-oxo-2-phenyl-1,2-dihydroisoquinoline-3-yl)pyrrolidine-1-yl)pyrido[2,3-d]pyrimidine-5(8H)-one], the 50% inhibitory concentration (IC50) in test [1] was 10 to 500 nM; in test [2], over 500 nM; in test [3], over 500 nM; against PI3 Kinase (p120γ) (h), 10 to 500 nM.

As usually defined, the IC50 is the concentration needed to halve the response being measured. A higher IC50 goes with a need for much substance.
